In one test the target is recombinant abl kinase (Homo sapiens, UniProt P00519). Nature of the test: Inhibition of tyrosine kinase activity (abl kinase, LANCE time resolved fluorescence). Format: biochemical. To be noted: abl kinase, peptide 6-20 p34cdc substrate. From the text:
Phosphorylation of the peptide substrate was detected using a non-separation time resolved fluorescence assay (LANCE™) using anti-phosphotyrosine conjugated europium and streptavidin conjugated allophycocyanin (APC).
On the technique in general: In TR-FRET formats the signal depends on donor and acceptor labels being close together.

Test [1] deals with IL-2 production by Jurkat E6-1 cells. As to the kind of experiment: Cytokine (IL-2) release from PMA pre-treated, anti-CD28 stimulated Jurkat E6-1 cells (DELFIA). To be noted: anti-CD28, 18 hours, read-out: IC50 for the inhibition of anti-CD28 induced IL-2 production by Jurkat E6-1 cells. Format: cell-based. As for the experimental part: Jurkat E6-1 cell line was obtained from American Tissue Culture Collection (ATCC, Rockville, USA). The cells were pre-treated with 3 ng/ml phorbol myristate acetate (PMA) for three hours, washed and exposed to dose ranges of the compound to be tested followed by the addition of 5 μg/ml anti-CD28.
After 18 hours incubation at 37° C. and 5% CO2, cell culture supernatants were harvested for determination of IL-2 secretion by Dissociation Enhanced Lanthanide Fluorescence Immuno Assay (DELFIA). The effect of compound on cell cytotoxicity was determined using a redox potential sensitive dye, resazurin. Effects on protein synthesis were determined by investigation of [^3H] leucine uptake.

[2] abbreviates: Homo sapiens, Jurkat E6.1, PMA pre-treated.

The source of these data is patent publication US6518316B1, “Cytokine production and tyrosine kinase inhibitors” (Xenova Limited, priority 1998, dated 2003).

Where two headings read alike, the source gives them in different places. Bounds are passed on as bounds.

The IC50 is the concentration at which inhibition is half-maximal.

Sequence of recombinant abl kinase (P00519 whole entry): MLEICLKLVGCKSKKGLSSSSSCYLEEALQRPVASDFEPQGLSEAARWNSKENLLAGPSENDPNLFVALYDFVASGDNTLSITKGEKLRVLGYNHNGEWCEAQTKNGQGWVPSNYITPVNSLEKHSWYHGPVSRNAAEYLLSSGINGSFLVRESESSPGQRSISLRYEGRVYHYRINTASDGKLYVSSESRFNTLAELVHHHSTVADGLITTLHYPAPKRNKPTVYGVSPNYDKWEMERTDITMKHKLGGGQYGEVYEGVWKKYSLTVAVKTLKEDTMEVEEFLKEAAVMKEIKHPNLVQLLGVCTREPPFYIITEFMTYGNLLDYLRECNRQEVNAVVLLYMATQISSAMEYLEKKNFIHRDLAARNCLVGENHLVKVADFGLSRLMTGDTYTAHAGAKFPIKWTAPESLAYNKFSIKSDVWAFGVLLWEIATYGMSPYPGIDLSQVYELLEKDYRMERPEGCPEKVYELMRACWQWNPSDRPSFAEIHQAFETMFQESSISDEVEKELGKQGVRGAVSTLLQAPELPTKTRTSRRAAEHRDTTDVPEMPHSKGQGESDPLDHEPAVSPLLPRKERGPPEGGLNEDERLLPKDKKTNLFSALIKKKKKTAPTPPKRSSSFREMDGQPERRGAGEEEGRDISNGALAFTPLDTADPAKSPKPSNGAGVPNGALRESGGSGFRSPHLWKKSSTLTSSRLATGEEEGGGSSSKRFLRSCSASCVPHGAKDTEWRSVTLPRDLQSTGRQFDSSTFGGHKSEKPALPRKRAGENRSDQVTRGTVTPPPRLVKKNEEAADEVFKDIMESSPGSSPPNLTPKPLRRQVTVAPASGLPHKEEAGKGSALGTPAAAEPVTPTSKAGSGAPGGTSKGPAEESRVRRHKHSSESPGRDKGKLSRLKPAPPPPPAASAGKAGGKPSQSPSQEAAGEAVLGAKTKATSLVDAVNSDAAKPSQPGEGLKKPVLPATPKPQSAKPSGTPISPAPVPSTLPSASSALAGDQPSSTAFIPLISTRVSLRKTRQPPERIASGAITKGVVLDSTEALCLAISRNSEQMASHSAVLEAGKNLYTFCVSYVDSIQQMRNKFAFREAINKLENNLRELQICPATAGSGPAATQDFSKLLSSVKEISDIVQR

Consider `CO[C@H]1[C@H](OC)c2c(O)cccc2C2=C3CCC(=O)c4c(O)ccc(c43)[C@@H]21` (relative stereo) [Compound 11a], for which the figures for the IC50 (at recombinant abl kinase; in test [1] (setting [2])) were 2360 nM and over 6180 nM, respectively.

For the compound `COC1C(O)c2c(O)cccc2C2=C3CCC(O)c4c(O)ccc(c43)C21` (single isomer, unassigned) [Compound 2a], the IC50 is over 1000 nM on recombinant abl kinase and 2960 nM in test [1] (setting [2]). Consider `COC1C(O)c2c(O)cccc2C2=C3CCC(O)c4c(O)ccc(c43)C21` (single isomer, unassigned) [Compound 2b], for which the IC50 on recombinant abl kinase was over 1000 nM. With `COC1C(O)c2c(O)cccc2C23OC24CCC(=O)c2c(O)ccc(c24)C13` (centres unmarked) [Compound 3], the figures for the IC50 (at recombinant abl kinase; in test [1] (setting [2])) were 700 nM and over 9560 nM, respectively. The like results for `COc1cccc2c1C(O)C(OC)C1C2=C2CCC(=O)c3c(O)ccc1c32` (centres unmarked) [Compound 4] were, in that order, over 1000 nM and 6640 nM. The like results for `COC1C(O)c2c(O)cccc2C2=C3CCC(NC4CC4)c4c(O)ccc(c43)C21` (centres unmarked) [Compound 5, 3-Cyclopropylamino-7-methoxy-1,2,3,6b, 7,8-hexahydrobenzo[d]fluoranthen-4,8,9-triol] were, in that order, over 1000 nM and 1280 nM. The like results for `COC1C(O)c2c(O)cccc2C2=C3CCC(=NO)c4c(O)ccc(c43)C21` (centres unmarked) [Compound 7, 4,8,9-Trihydroxy-7-methoxy-1,6b,7,8-tetrahydro-2H-benzo[j]fluoranthen-3-one oxime] were, in that order, over 1000 nM and over 1490 nM. In the case of `COC1C(O)c2c(O)cccc2C2=C3CCC(=O)c4c(O)c(Cl)cc(c43)C21` (centres unmarked) [Compound 8, 5-Chloro-4,8,9-trihydroxy-7-methoxy-1,6b,7,8-tetrahydro-2H-benzo[j]fluoranthen-3-one], the IC50 at recombinant abl kinase is over 1000 nM.

For `CCCOC1c2c(O)cccc2C2=C3CCC(=O)c4c(O)ccc(c43)C2C1OC` (centres unmarked) [Compound 9, 4,9-Dihydro-7-methoxy-8-propoxy-1,6b,7,8-tetrahydro-2H-benzo[j]fluoranthen-3-one], the IC50 at recombinant abl kinase is 132 nM; in test [1] (setting [2]), 10900 nM. The like results for `CCOC1c2c(O)cccc2C2=C3CCC(=O)c4c(O)ccc(c43)C2C1OC` (centres unmarked) [Compound 10, 8-Ethoxy-4,9-dihydroxy-7-methoxy-1,6b,7,8-tetrahydro-2H-benzo[j]fluoranthen-3-one] were, in that order, 274 nM and 2350 nM. The like results for `CCO[C@@H]1c2c(O)cccc2C2=C3CCC(=O)c4c(O)ccc(c43)[C@@H]2[C@H]1OC` [Compound 10a] were, in that order, over 5000 nM and over 7940 nM. As for `COC1c2c(O)cccc2C2=C3CCC(=O)c4c(O)ccc(c43)C2C1OC` (centres unmarked) [Compound 11, 4,9-Dihydroxy-7,8-dimethoxy-1,6b,7,8-tetrahydro-2H-benzo[j]fluroanthen-3-one], the IC50 was 45 nM at recombinant abl kinase and 1060 nM in test [1] (PMA pre-treated). In the case of `COC1C(=O)c2c(O)cccc2C2=C3CCC(=O)c4c(O)ccc(c43)C21` (centres unmarked) [Compound (II)], the half-inhibitory concentration (IC50) (on recombinant abl kinase; in test [1] (setting [2])) was over 5000 nM throughout. As to `COC1c2c(O)cccc2C2=C3CCC(=O)c4c(O)ccc(c43)C2C1OC` (centres unmarked) [Compound (III)], the IC50 in test [1] (PMA pre-treated) is 4300 nM.

On to `CO[C@H]1[C@@H](O)c2c(O)cccc2C2=C3CCC(=O)c4c(O)ccc(c43)[C@H]21` [Compound (Ib)], for which the IC50 in test [1] (setting [2]) came to 2500 nM.
